Test results taken from publication PMC6054100, “Exploring the chemical space of the lysine-binding pocket of the first kringle domain of hepatocyte growth factor/scatter factor (HGF/SF) yields a new class of inhibitors of HGF/SF-MET binding” (Chemical Science, 2015).

Legend:
Set-up in all cases: made in house; host or cells: Pichia pastoris
NK1 [1] = target: T1, NK1 (Homo sapiens, UniProt P14210); experiment: SPR steady-state binding to immobilized NK1 (Biacore T100)
How it was run: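 NK1 amine-coupled to a CM5 chip at 6000 RU; compound serial dilutions in PBS pH 7.4 with 0.05% Tween 20 injected at 30 μL min^–1, 1 min contact and 1 min dissociation. Binding constants derived from steady-state sensorgram analysis.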

NK1 [2] = target: T1, NK1; experiment: 1H-15N TROSY-HSQC NMR chemical shift titration of 15N-labelled NK1; assay type: binding
Experimental: Ligand screening was performed by monitoring the chemical shift variations in ^1H-^15N TROSY-HSQC NMR spectra of the uniformly [^15N]-labelled NK1 protein (Fragai et al. 2015, in prep.) upon the addition of increasing concentrations of the investigated compounds.[43]–[45] The experiments were performed using 0.18 mM protein samples in 25 mM Tris, 100 mM NaCl and 0.01% sodium azide, at pH 7.2 with 10% D2O. The spectra were recorded at 310 K on a Bruker AVANCE 900 MHz spectrometer equipped with a TXI cryo-probe. Sample solutions were prepared from 1 M or 100 mM DMSO stock solutions of the ligands. The dissociation constant values (KD) were calculated by plotting the weighted average ^1H and ^15N chemical shifts of the residues experiencing significant variations as a function of ligand concentration added during the titration and considering the one site binding model.[46]

NK1 [3] = target: T1, NK1; experiment: SPR fragment library screening against NK1; assay type: binding; conditions: for SPR response: normalised relative value against NK1
Experimental: Supplementary Materials and Methods
Fragment library screening and data analysis
Met567 (soluble truncated f ragment of the MET ectodomain, residues 25- 567), NK1 and t he SPH domain were immobilized on CM5 chips by amine coupling. NK1 was diluted into 10 m M phosphate pH 7.0 and the SPH domain into 10 mM acetate pH 5.5 to a final concentration of 2.5 μM and 1 μM, respectively, for coupling. The immobilization wizard within the Biacore T100 software was set to “aim for immobiliz ed level” of 8000 RU to achieve complete saturation of the chip surface.
W ith minor deviations, the procedure and conditions outlined below were used f or a ll screening s of an in-house fragment library of 1338 members against individual target proteins. The running buffer was PBS pH 7.4, 0.05% Tween 20, 0.25% DMSO (1% DMSO for Met567). Fragments were stored as 100 mM stock solutions in DMSO. Prior to screening, fragment samples were diluted to 500 μM (1 mM f or Met567) in running buffer.
Screening was performed in 96- we ll plates at a flow rate of 30 μl min-1 with 1 min sample injection f ollowed by dissociation f or 1 min and surf ace regeneration using 1 M NaCl f or 30 […]
post-regeneration baseline exceeded the pre- sample baseline by more than 10 RU, a second regeneration cycle with 50% ethylene glycol was used. In order to be able to correct for small variations in DMSO concentration between samples, eight solvent samples ranging from 0.012 to 1.5% DMSO were injected every 40th cycle. To monitor the binding capacity of the NK1, SPH and Met567 surfaces throughout the screening, injections of 500 μM HEPES (NK1), 0.25 μM Met567 (SPH) and 0.2 μM NK1 and 1% DMSO (Met567) were carried out every 40th cycle. The flow cell temperature was 25°C. NK1 and the SPH domain were immobilized on the same chip (channels 2 and 3 respectively) and were theref ore screened in parallel. Met567 was screened separately and results are published in an accompanying paper (W in t er et al. 2015, in revision).
For data analysis, fir st, all responses were reference and solvent corrected. 1 Next, equilibrium binding for every fragment was determined and hits established by applying several filters: sensorgram shape, upper and lower threshold. Typical sensorgrams from fragment screening show “square curves” in SPR due to the fast on and off rates and fragments not showing this response were discarded from further analysis. Binding levels are represented as response units (RU) but the SPR signal is a convolution of multiple parameters including target coupling density, target -binding activity, target molecular weight and molecular weight of each injected fragment. To be able to identif y hits accurately and to be able to compare responses between different plates and targets, data were normalised against these factors. First the theoretical maximum response for each fragment was calculated using equation 1:
RRmmm = CCCCCCCC ddCdCdd× MMffmCmdCd (Equation 1)
This RUmax value diff ers for each protein target because it depends on the molecular weight of the protein and the amount of protein immobilized on the chip (coupling density). The RUmax was then used to calculate the normalised relative SPR response:
NNNNNNNNNN NNNNr NrN SSR NNNrNrNN = RRcppppcppc× 100% (Equation 2) […]
fragment should cause upon binding. 100% response would be 1:1 binding wit h levels above 100% implying over-stoichiometric binding. […]
Fragment library screening to identify small molecule binders

T1 sequence (P14210 32-210 isoform P14210-6 limits assumed): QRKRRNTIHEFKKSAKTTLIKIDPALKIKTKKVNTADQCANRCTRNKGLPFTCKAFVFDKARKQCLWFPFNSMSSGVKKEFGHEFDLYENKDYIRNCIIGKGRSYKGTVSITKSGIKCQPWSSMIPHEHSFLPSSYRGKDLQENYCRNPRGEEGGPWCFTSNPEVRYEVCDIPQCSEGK

affinity for NK1 relative to HEPES (NK1 [1]; fold better than HEPES): about ten times better affinity
Kd (NK1 [1]; steady-state binding constant from SPR, fragment hits (Table 3, text), read-out: KD): 310 ± 40 µM
variation in chemical shifts for NK1 residues (NK1 [2]; 1H-15N TROSY-HSQC, residues in and around the lysine-binding pocket): showed variation in chemical shifts
Kd (NK1 [2]; NMR chemical shift titration, read-out: KD): 110 µM
Ranking order (NK1 [3]; based on fragment screening, rank among the 71 NK1 hits (ESI Tables S3-S7)): 1
SPR response (NK1 [3]; fragments 500 μM (ESI Tables S3-S7)): 215%
SPR response (NK1 [3]; initial fragment screening, fragments 500 μM (Table 3)): 215%
SMILES: O=C(O)CCc1ccco1 [MB605]
